The nature of series [1]: Bulk density according to USP <616>, method 1. The format is physicochemical. From the text: (§1) Can's Index compares the difference between the bulk density and tapped density of a substance to determine its compressibility. The bulk density and the Carr's Index may be determined in accordance with USP<616> (method for performing Bulk and Tapped Densities, method 1) and USP<1174> (definition of powder flow) respectively.
The bulk density of the blended composition is >0.4 g/ml, such as 0.4-0.6 g/ml, such as about 0.5 g/ml determined according to USP <616>, method 1. In some embodiments the bulk density of the composition is >0.4 g/ml, such as about 0.5 g/ml, such as 0.51 g/ml, such as 0.508 g/ml.
The bulk density of pimavanserin granulation is >0.4 g/ml, such as 0.4-0.6 g/ml, such as about 0.5 g/ml, determined according to USP <616>, method 1. In some embodiments the bulk density of the pimavanserin granulation is >0.4 g/ml, such as about 0.5 g/ml, such as 0.51 g/ml, such as 0.508 g/ml.

Series [2] can be described thus: Carr's Index (Carr's Compressibility Index), USP <616>/<1174>. The format is physicochemical. Here is the method: as §1
Table 1 visualizes that filling of a capsule, in particular a capsule of size 3 or 4 (capsule volumes of 0.30 and 0.21 ml respectively, approximately […] and 85 mg respectively at a bulk density of 0.5 g/ml). As evident from Table 1, native pimavanserin (API) would be challenging for a size 3 capsule and not possible for a capsule of size 4 without improving the bulk density (as comparison 85 mg of pimavanserin granulation would require about 0.17 ml compared to 0.29 nil for the native API) and flowability (Carr index is frequently used in pharmaceutical manufacturing as an indication of the flowability of a powder, e.g. 2016 U.S. Pharmacopoeia-National Formulary [USP 35 NF 30]).

Series [3] is described as follows: Laser light scattering particle size analysis (Malvern Mastersizer 2000). The format is physicochemical. As to conditions: FIG. 4 / FIG. 5. From the text: The small quantity of water, its application using appropriate water atomization and/or water application rate are important reasons for the improved properties of pimavanserin. […] The actual amount of water to be sprayed at the granulation of pimavanserin may vary from batch to batch (depending on surrounding factors such as humidity, temperature, exact properties of the API batch, etc) but is still consider to be a small amount, e.g. 3-10% w/w based on the dry ingredients. The amount of water and the granulation process disclosed herein is controlled by controlling the impeller energy to achieve the targeted impeller speed. The appropriate impeller speed ensures sufficient mixing and controls the growth of granules. The specific small amount of water needed for each batch is controlled by the power consumption (amperage) of the granulator, i.e., if the amperage is […], additional amounts of water could be sprayed to the granulate in order to obtain pimavanserin having the properties desired in order to pharmaceutically manufacture capsules comprising 5-34 mg pimavanserin. […] The properties are achieved via a manufacturing process that includes granulation, using a suitable granulator, e.g. a high shear granulator, simultaneously spraying the adequate amount of water while mixing, followed by screening, and blending appropriate quantities of excipients. […]

The subject of series [4] is DOI ((±)-2,5-dimethoxy-4-iodoamphetamine, a serotonin agonist) induced head twitches. As to conditions: rat, oral doses of 3 and 10 mg/kg; cited from earlier work.

As for pimavanserin tartrate [Native API], the “Bulk density according to USP <616>” value in series [1] is 0.294 (n = 2) g/ml. In addition, the “volume required for 85 mg” value in series [1] (85 mg of powder, from bulk density) stood at 0.29 mL. Also, in series [2], the “Carr's Index” value is recorded as 36 (n = 2). For the same compound, in series [3], the “particle size distribution D90” value is “about 30 μm”.
On to `CC(C)COc1ccc(CNC(=O)N(Cc2ccc(F)cc2)C2CCN(C)CC2)cc1` [Pimavanserin, N-(1-methylpiperidin-4-yl)-N-(4-fluorophenylmethyl)-N′-(4-(2-methylpropyloxy)phenylmethyl)carbamide], for which, in series [4], the “activity against DOI induced head twitches” value is reported as “effective”.

Values taken from US20210077479A1, “FORMULATIONS OF PIMAVANSERIN” (ACADIA Pharmaceuticals Inc., priority 2017, published 2021).
